The source of these data is US9550764B2, “Fused heterocyclic compounds and their use” (The Institute of Cancer Research: Royal Cancer Hospital, priority 2012, dated 2017).

Molecules are shown by their SMILES. Like-named read-outs stand apart in the source and are kept apart here. Where only a bound is given, the exact number is not on record here.

The subject of one experiment is SMOV2 (A). The experiment is described as follows: SRB proliferation assay, SMOV2 (PPM1D amplified). As to conditions: Homo sapiens, SMOV2, PP1MD amplified cell line (A). Type of experiment: cell-based. The text has this:
(§1) All cell lines were obtained from ATCC except KPL1 which was obtained from Leibniz Institute DSMZ-German Collection of Microorganisms and Cell Cultures, and SMOV2 which was obtained from Dr. Hiroaki Itamochi (Tottori University School of Medicine, Yonago, Japan; see also: ‘Establishment and characterization of human ovarian clear cell adenocarcinoma cell line (SMOV-2), and its cytotoxity by anticancer agents’, Yonamine K at al., Hum Cell., 1999, 12(3), 139-48; and ‘PPM1D Is a Potential Therapeutic Target in Ovarian Clear Cell Carcinoma’, David S. P. Tan et al., Clin Cancer Res, 2009, 15, 2269).
(§2) Representative compounds were assessed in a sulforhodamine B (SRB) proliferation assay in the cell lines shown in the Tables below, according to the following general procedure:
(§3) Cells were seeded in a 96 well plate at a number optimized for each cell line as known in the art; for example as described in Viachai et al, Nature Protocols, 2006, 1 1112-1116. Two fold dilutions of the compounds to be tested were made in culture medium so that, when diluted 5×, the final concentration in the wells was from 50 μM to 0.000191 μM (19 concentrations). A day after seeding the cells in 96 well plates, 25 μl of the compound diluted in the culture medium was added to 100 μl of the cells and incubated at 37° C. and 5% CO2 for 3 or 5 more days as required. After this time, cells were fixed by adding 10% ice cold TCA (in H2O) to 3% final concentration in the wells and by incubating at 4° C. for at least 2 h. Plates were washed 4 times in H2O and allowed to dry in the air. Added 100 μl of 0.057% SRB solution to the dried plates and incubated at room temperature for at least 30 min. Removed SRB solution from the plates and washed four times with 1% acetic acid. Plates were left overnight to dry in the air followed by addition of 100 μl of 10 mM Tris pH 10.5 to each well of the dried plates and incubation on a shaker for 5 min to solubilize the SRB. Optical density was measured at wave length of 490 nm using a plate reader and analysis performed to measure the GI50 using GraphPad PRISM.
On the technique in general: In SRB staining, fixed cells bind dye roughly in proportion to their protein.

A further experiment deals with TOV21G (NA). Briefly: SRB proliferation assay, TOV21G (non-amplified control). It is filed as cell-based. Particulars: 5-day incubation, control not amplified (NA).
Text: as §1, §2, §3

The next experiment has as its system MCF7 (A). Briefly: SRB proliferation assay, MCF7 (amplified). Type of experiment: cell-based. As to conditions: MCF7a, 120 h, 5-day incubation.
Text: as §1, §2
(§4) Cells were seeded in a 96 well plate at a number optimized for each cell line as known in the art; for example as described in Viachai et al, Nature Protocols, 2006, 1 1112-1116. Two fold dilutions of the compounds to be tested were made in culture medium so that, when diluted 5×, the final concentration in the wells was from 50 μM to 0.000191 μM (19 concentrations). […] Optical density was measured at wave length of 490 nm using a plate reader and analysis performed to measure the GI50 using GraphPad PRISM.

A further experiment concerns KPL1 (A). Briefly: SRB proliferation assay, KPL1 (amplified). Type of experiment: cell-based. As to conditions: KPL-1, 120 h, 5-day incubation.
Text: as §1, §2, §4

The subject of a further experiment is MDAMB231 (NA). The experiment is described as follows: SRB proliferation assay, MDAMB231 (non-amplified). Type of experiment: cell-based. As to conditions: Homo sapiens, MDA-MB-231, 120 h; 5-day incubation; MDAMB231, not amplified (NA).
Text: as §1, §2, §4

The subject of another experiment is HeLa (NA). The experiment is described as follows: SRB proliferation assay, HeLa (non-amplified). It is filed as cell-based. As to conditions: Homo sapiens, 120 h, 5-day incubation, not amplified (NA).
Text: as §1, §2, §4

The test system of a further experiment is Cama1 (NA). The experiment is described as follows: SRB proliferation assay, Cama1 (non-amplified). Type of experiment: cell-based. As to conditions: Homo sapiens, CAMA-1, 120 h; 5-day incubation; Cama1, not amplified (NA).
Text: as §1, §2, §4

Experiment [1] concerns Phospho-p38, Phospho-p53 S15, cleaved PARP in SMOV2 cells. Briefly: Western blot analysis of biomarker modulation in SMOV2 cells. Type of experiment: cell-based, human. As to conditions: 24 hours treatment, FIG. 1. The procedure:
FIG. 1 provides an image showing the results of a Western Blot (LDS-PAGE gel) for cleaved PARP, Phospho-p53 S15, Phospho-p38, and GAPDG, confirming modulation of the biomarkers expected for PP1 MD-mediated inhibition in SMOV2 cells as described in Example 2.
Biomarker modulation by representative compounds was assessed by Western blot analysis in SMOV2 cells using the following procedure:
On day one, 3×10^5 cells were plated per well in a 6 well plate. Next day cells were treated with DMSO control or indicated concentrations of the representative compounds for 24 hours. Treated cells were lysed in complete lysis buffer (50 mM NaCl, 20 mM Tris pH7.5, 1 mM EDTA, 1 mM EGTA, 1% Triton X100, 10 mM NaF, protease Inhibitor tablet and phosphatase inhibitor cocktails) on ice for 10 min. Soluble proteins were separated by centrifugation, and protein concentration was measured using Bradford assay. Samples with equal amount of proteins were prepared and run on LDS-PAGE. Separated proteins were transferred to the nitrocellulose membrane and probed with the Phospho-p38, Phospho-p53 S15, cleaved PARP, γ-H2AX and GAPDH antibodies.
A general note: A western blot detects proteins with antibodies after separation by electrophoresis.

The mark [2] stands for this setting: 72 h, 3-day incubation, read-out: GI50 3-day SMOV2 (A) SRB.
The mark [3] stands for this setting: 120 h, 5-day incubation, read-out: GI50 5-day SMOV2 (A) SRB.

Consider `COCCOCc1cc(F)ccc1-c1nc(-c2ccc3[nH]c(=O)[nH]c3c2)cs1` [Compound 32, 5-(2-(4-fluoro-2-((2-methoxyethoxy)methyl)phenyl)thiazol-4-yl)-1H-benzo[d]imidazol-2(3H)-one], for which the 50% growth inhibitory concentration (GI50) (as a rule, the concentration giving 50% growth inhibition) with SMOV2 (A) (setting [2]) was 4.8 nM; in the experiment on SMOV2 (A) (setting [3]), 1.6 nM; with TOV21G (NA) (Homo sapiens, 120 h), over 10000 nM; in the experiment with MCF7 (A), 4.6 nM; in the experiment on KPL1 (A), 36 nM; with MDAMB231 (NA) it was over 10000 nM. For the same compound, the GI50 amounted to 5600 nM in the experiment on HeLa (NA) and 3900 nM in the experiment with Cama1 (NA). The “biomarker modulation (Western blot: cleaved PARP, Phospho-p53 S15, Phospho-p38)” value in experiment [1] is given as “modulation of the biomarkers expected for PP1MD-mediated inhibition”.

For `O=c1[nH]c2ccc(-c3csc(-c4ccc(F)cc4COCCO)n3)cc2o1` [Compound 18, 6-(2-(4-fluoro-2-((2-hydroxyethoxy)methyl)phenyl)thiazol-4-yl)benzo[d]oxazol-2(3H)-one], the GI50 in the experiment on SMOV2 (A) (setting [2]) worked out at 1.7 nM; in the experiment on SMOV2 (A) (setting [3]), 0.9 nM; with TOV21G (NA) (Homo sapiens, 120 h), 9500 nM.

Turning to `NCCOCc1cc(F)ccc1-c1nc(-c2ccc3[nH]c(=O)oc3c2)cs1` [Compound 19, 6-(2-(2-((2-aminoethoxy)methyl)-4-fluorophenyl)thiazol-4-yl)benzo[d]oxazol-2(3H)-one], the GI50 in the experiment with SMOV2 (A) (setting [2]) worked out at 1.4 nM; with SMOV2 (A) (setting [3]), 5 nM; with TOV21G (NA) it was 1700 nM; in the experiment on TOV21G (NA) (Homo sapiens, 120 h), 1200 nM.
